# “Also recorded” adds a separate entry of the source.
# What was measured:
# [1] = system: UDP glucuronyl transferase; details: rat, microsomes, 0.5 h
# [2] = system: UDP glucuronyl transferase; experiment: Rat liver microsomal glucuronidation; details: for Vmax: detergent-activated rat liver microsomes, 37° C., 30 min, average of two to three experiments; for substrate for UDP glucuronyl transferase: rat liver microsomes, in vitro
# estrogen receptor = molecular target: T1, estrogen receptor (Rattus norvegicus, UniProt P06211); experiment: Estrogen receptor affinity: competition with [3H]estradiol binding in rat uterine cytosol; details: for estrogen receptor affinity relative to estradiol (affinity=100): estradiol = 100
# T1 construct: Uteri from Sprague-Dawley rats (200-250g) are homogenized; from tissue; host or cells: rat uterus, 100000g supernatant (cytosol), Sprague-Dawley
# T1 sequence (P06211 1-600): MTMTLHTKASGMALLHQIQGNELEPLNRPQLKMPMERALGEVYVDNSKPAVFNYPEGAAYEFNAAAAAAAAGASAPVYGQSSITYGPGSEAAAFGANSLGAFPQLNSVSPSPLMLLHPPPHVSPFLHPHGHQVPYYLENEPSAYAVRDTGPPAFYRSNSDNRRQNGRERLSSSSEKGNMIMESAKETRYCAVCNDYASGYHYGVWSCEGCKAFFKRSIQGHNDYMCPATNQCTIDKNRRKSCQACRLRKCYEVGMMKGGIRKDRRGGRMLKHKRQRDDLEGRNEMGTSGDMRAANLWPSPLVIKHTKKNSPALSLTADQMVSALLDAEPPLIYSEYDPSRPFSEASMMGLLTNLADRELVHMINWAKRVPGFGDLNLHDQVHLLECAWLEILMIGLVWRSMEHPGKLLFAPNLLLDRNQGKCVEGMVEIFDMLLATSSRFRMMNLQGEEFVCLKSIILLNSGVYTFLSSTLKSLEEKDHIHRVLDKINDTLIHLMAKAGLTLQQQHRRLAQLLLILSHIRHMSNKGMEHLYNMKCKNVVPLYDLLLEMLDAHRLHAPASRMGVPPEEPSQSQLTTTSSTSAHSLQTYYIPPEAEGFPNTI
# Protocol: The estrogen receptor affinity of the triarylethylenes of Formula I can be measured according to the method of Ruenitz, et.al., J. Med. Chem., 25:1056, (1982).
# [^3 H]Estradiol (58 Ci/mmol) can be obtained from Amersham Corp., and its radiochemical purity checked by TLC. Uteri from Sprague-Dawley rats (200-250g) are homogenized (1 uterus/2 mL) in ice-cold 10 mM Tris buffer, pH 7.4, that contains 1.5 mM EDTA and 3 mM sodium azide (TEA buffer). The homogenate is centrifuged at 100000g for 1 hour at 4° C. Incubation mixtures should contain 200-μμL aliquots of the supernatant, and 10 μL of a solution of 1.1×10^-7 M [^3 H]estradiol in dimethylacetamide, and 10 μL unlabeled competitor in dimethylacetamide. Ten concentrations of competitor are used ranging from 1×10^-9 to 5×10^-5 M. Control incubations should contain 10 μL of solvent alone. Nonspeoifio binding is determined in similarly prepared incubations that contain 1×10^-5 M estradiol. Incubations should be performed in triplicate, in 5-mL polypropylene centrifuge tubes, at 2°- 4° C. for 4 hours. Then a suspension of 400 μL of dextran-coated charcoal [0.1% dextran (Sigma no. D-1390), 1% acid-washed Norit A in TEA buffer]is added, and the incubation continues for 15 minutes at 2°-4° C. Tubes are then centrifuged at 1000g for 10 minutes, and 400-μL aliquots are dissolved in 5 mL of Scintivense (Fisher), Bound [^3 H]estradiol is determined by liquid scintillation spectrometry. Quench corrections are made by the external standard method.
# The estrogen receptor affinity of 4-hydroxy tamoxifen acid was measured according to the assay described in Example 2. FIG. 2 is a graph of the effect of increasing concentrations (nM) of 4-HTA (--.quadrature.--), estradiol (--O--), and TA (-- --) on the binding of [^3 H]estradiol in uterine cytosol from immature rats. Specifically bound ^3 H from [^3 H]estradiol is plotted as a percentage of that bound in control incubations in the absence of 4-HTA, estradiol, or TA. Estradiol and tamoxifen, the non-hydroxylated analog of 4-HTA, were used as standards.
# MCF7 breast cancer cells = experiment: Reversal of the inhibitory effect of tamoxifen on MCF 7 cell growth; type: cell-based, human; details: 1 μM tamoxifen, FIG. 4
# Protocol: Cells were grown as summarized in Example 4 and tamoxifen was added to flasks as a solution in DMSO […], as were increasing concentrations of TA or 4-HTA.
# MCF 7 cells = experiment: Stimulation of MCF 7 cell proliferation in estrogen free medium; type: cell-based, human; details: nine days, FIG. 5
# Protocol: Cells were conditioned as described in Example 2, and then withdrawn from estrogen stimulation and incubated with phenol red free medium prepared with charcoal-stripped fetal calf serum. After five days, medium was changed and 4-HTA or estradiol were added as described in Example 2. After nine days, cell numbers were determined.
# Each point is the average of 3-6 determinations. […] These findings indicate that 4-HTA is a pure estrogen with no residual estrogen antagonist activity.
# [3] = Distribution and elimination of TA and 4-HTA after intraperitoneal [14C]TAM in immature female rats; type: in vivo, rat; details: for Percent of Dose Present as: Total 14C: i.p. [14C]TAM, rat, values ±5%
# Protocol: Animals and Dosing. Female Sprague-Dawley rats, 45-55 grams each, were maintained on a normal laboratory diet and were divided into groups of four to six per experiment. […] This solution was prepared by dissolving the drug in 10 ml of 1% citric acid in N,N-dimethylacetamide and diluting the solution with 0.2 ml of 1.15% aqueous KCl just before use. Animals were housed in polycarbonate metabolism cages equipped for separate collection of urine and feces.
# Processing of Biological Samples. At 24 and 48 hours after dosing, animals were killed by decapitation. Uteri and livers were removed and weights were recorded. Pooled uteri, and livers were homogenized in 10 volumes of methanol. Each homogenate was centrifuged at 400×g for 10 min. Triplicate 1.0 ml aliquots of supernatants were counted for radioactivity in 8 ml of Ecoscint (National Diagnostics, Somerville, N.J.). Collected urine was lyophilized. The residue was sonicated in methanol, and the mixture was filtered and the solid residue was washed with methanol to make the final volume equal to the original urine volume. This procedure removed endogenous polar materials with no loss of radioactivity. Feces collected 24 and 48 hr after dosing were homogenized in 10 volumes of methanol. The homogenate was centrifuged and analyzed for radioactivity as described above.
# Extraction and Analysis. Unlabelled TA and 4-HTA […] were added as standards to methanol extracts of tissues, urine, and feces. A third standard, TA glyOH, was added only to the urine extract. Each solution was then concentrated under a stream of N2. To each residue was added 0.5 ml of 1% aqueous NaOH. The resulting mixture (pH≥11) was extracted serially two times with 1.0 ml portions of ether. Radioactivity present in these extracts was determined. To the aqueous phase was added 0.1 ml of 10% HCl, and the mixture (pH≤1) was extracted as before. Radioactivity was determined in some of these extracts. Otherwise, they were concentrated under a stream of N2. Each residue was dissolved in […] of acetone and the solution was applied to a TLC plate. Developed plates were segmented using the locations of reference compounds under UV light of 254 nm wavelength for guidance. Radioactivity was determined in segments containing reference compounds, and in some cases in all segments from TLC plates.
# The specific activity of TA and 4-HTA eluted from developed chromatograms was determined by immersion of the segments containing these metabolites in a solution of 2.8% ammonia in methanol for 12 hr. Radioactivity in aliquots of eluates was determined, and quantities of TA and 4-HTA were estimated from absorbance of solutions at 283 nm using e283 =1.2×10^4 M^-1 cm-^-1 for each compound. Subsequent processing of eluates was conducted according to methods known in the art.
# [4] = system: MCF 7 human breast cancer cells; experiment: Effect on proliferation of MCF 7 cells grown in the presence of estrogens; details: cell numbers after five days, FIG. 3
# Protocol: The antiestrogenic effect of the nonsteroidal triarylethylene compounds of Formula I is measured by comparing the growth of MCF7 breast cancer cells in the presence and absence of the compounds, according to the method described below for 4-hydroxy tamoxifen acid.
# Cell numbers were determined five days later, after approximately four population doublings in drug free controls. Data shown are expressed as percentages of cell numbers in control flasks and are averages of six estimates from two separate experiments.
# [5] = Rat liver microsomal glucuronidation; details: rat, liver microsomes
Vmax [2] [nmols/mg-min],estrogen receptor affinity relative to estradiol (affinity=100) (estrogen receptor),substrate for UDP glucuronyl transferase [2],Km at 0.5 h [5] [µM],Compound,reversal of the growth inhibitory effect of TAM on MCF 7 cells (MCF7 breast cancer cells),inhibition of growth/proliferation of MCF 7 human breast cancer cells [4],further results
0.0,21,not a substrate,,"CCC(=C(c1ccc(O)cc1)c1ccc(OCC(=O)O)cc1)c1ccccc1 [4-HTA, (E,Z)-2-{4-[1-(p-hydroxyphenyl)-2-phenyl]-1-butenyl}phenoxyacetic acid]",both compounds reverse the growth inhibitory effect; also recorded: reversed in a dose dependent manner,Neither tamoxifen acid nor 4-HTA inhibits the growth; also recorded: no effect on proliferation,"estrogen receptor affinity as percent of that of estradiol (estrogen receptor; [3H]estradiol, uterine cytosol from immature rats, FIG. 2): 21%; maximal level of MCF 7 growth stimulation compared with estradiol (MCF 7 cells): stimulated growth to the same level as did estradiol; stimulation of MCF 7 cell growth (MCF 7 cells; submicromolar concentrations): dose dependent stimulation of growth; urinary elimination form ([3]; immature female rat): eliminated unchanged in the urine; presence in uterine or ovarian tissue ([3]; immature female rat, after [14C]TAM): not detected in uterine or ovarian tissue"
16.5,,excellent substrate,73,CCC(=C(c1ccc(O)cc1)c1ccc(OCC(=O)OC)cc1)c1ccccc1 [Methyl 4-HTA],,,

# The next lines start with the compound.
Compound,Vmax [2] [nmols/mg-min],estrogen receptor affinity relative to estradiol (affinity=100) (estrogen receptor),substrate for UDP glucuronyl transferase [2],Km at 0.5 h [5] [µM],reversal of the growth inhibitory effect of TAM on MCF 7 cells (MCF7 breast cancer cells),inhibition of growth/proliferation of MCF 7 human breast cancer cells [4],further results
4-hydroxytamoxifen [4-HT],7.4,,,,,,Km [1]: 83 µM
"CCC(=C(c1ccccc1)c1ccc(OCC(=O)O)cc1)c1ccccc1 [TA, (E,Z)-4-(1,2-diphenyl-1-butenyl)phenoxyacetic acid]",0.0,0.01,,,to a lesser extent,Neither tamoxifen acid nor 4-HTA inhibits the growth,binding to the estrogen receptor (estrogen receptor; FIG. 2): also binds to the estrogen receptor; reversal of the growth inhibitory effect of TAM on MCF 7 cells (MCF7 breast cancer cells; listed as tamoxifen acid): both compounds reverse the growth inhibitory effect
"CCC(=C(c1ccc(O)cc1)c1ccc(O)cc1)c1ccccc1 [TAM bis-phenol, 1,1-bis-(4-hydroxyphenyl)-2-phenyl-1-butene]",14.7,,,54,,,
"CC/C(=C(\c1ccccc1)c1ccc(OCCN(C)C)cc1)c1ccccc1 [TAM, (Z)-2-[4-(1,2-diphenyl-1-butenyl)phenoxy]-N,N-dimethylethanamine]",,,,,,potent inhibitor of cell growth,"Percent of Dose Present as: Total 14C ([3]; feces, 0-24 hr after dosing): 30.49%; Percent of Dose Present as: Total 14C ([3]; feces, 24-48 hr after dosing): 16.05%; Percent of Dose Present as: Total 14C ([3]; liver, 24 hr after dosing): 20.25%; Percent of Dose Present as: Total 14C ([3]; liver, 48 hr after dosing): 2.84%; Percent of Dose Present as: Total 14C ([3]; urine, 0-24 hr after dosing): 8.70%; Percent of Dose Present as: Total 14C ([3]; uterus, 24 hr after dosing): 0.12%"

# Source: patent US5189212A, “Triarylethylene carboxylic acids with estrogenic activity” (University of Georgia Research Foundation, Inc., priority 1990, dated 1993)
